The values below come from US20020055458A1, “Method for the prevention and treatment of retinopathy” (priority 2000, published 2002).

Assay [1] has as its system optic nerve oxygen tension (ONPo2). As to conditions: pig; Stefánsson et al., IOVS 1999; cited from earlier work.
Assay [2] concerns diabetic retinopathy in patients with diabetes mellitus. As to the kind of experiment: Retrospective clinical study of progression of diabetic retinopathy in diabetics on glaucoma eye drops. In kind it is in vivo, human. As to conditions: for two year event rate (progression of retinopathy): diabetic patients on eye drops for glaucoma or ocular hypertension, 2 years from onset of medication, CAI group n=19, non-CAI group n=12. As to the method: In a retrospective clinical study, the hypothesis that dorzolamide eye drops (Trusopt®) used bid or tid for glaucoma or ocular hypertension would slow the progression of diabetic retinopathy in patients with diabetes mellitus was tested. Since 1980, a screening program has been in place for diabetic eye disease at the Department of Ophthalmology, University of Iceland, Reykjavik, Iceland. Eye examinations of diabetic patients have been performed annually and examination results have been documented. A retrospective study was undertaken to find those diabetics who were using CAIs or beta-blockers (such as timolol) for either glaucoma or ocular hypertension. These candidates were selected from the general population of the screening program. In total, 31 patients were found. Of these 31, 19 were prescribed CAIs or a combination of CAIs and beta-blockers. The remaining 12 patients were taking a non-CAI medication and served as a control group in the study. The examination findings were reviewed to determine if the changes in retinopathy rating could be associated with CAI use. Also noted was historical information such as length of time since diabetes had been diagnosed, type of medication and time span of usage, visual acuity and other relevant comments. Of those using a CAI, 12 were men and seven were women. The mean age was 67 (range 28-80) for men and 73 (range 62-81) for women. The average time since diagnosis of diabetes mellitus was 14.1 years (SD=9.7 years). The average frequency of check-ups was every 9.1 months (SD=10.7 months). There was an average of 7.4 years of eye examinations and fundus photographs on record (SD=6 years) and the patients were on a CAI for an average of 18.2 months (SD=14.4 months). Of those in the non-CAI (control) group, seven were men and five were women. The mean age was 73 (range 54-82) for men and 75 (range 67-86) for women. The average time since diabetic diagnosis was 15.3 years (SD=7.8 years). The average frequency of check-ups was every 10.9 months (SD=7.9 months). There was an average of 6.2 years of eye examinations and fundus photographs on record (SD=4 years) and the patients were on medication for an average of 58.8 months (SD=52.4 months).

With `CC(=O)Nc1nnc(S(N)(=O)=O)s1` [Acetazolamide, N-[5-(aminosulfonyl)-1,3,4-thiadiazol-2-yl]acetamide], the “effect on optic nerve oxygen tension (ONPo2)” value in assay [1] is listed as “increased ONPo2”.

As for `CCN[C@H]1C[C@H](C)S(=O)(=O)c2sc(S(N)(=O)=O)cc21` [dorzolamide], the “two year event rate (progression of retinopathy)” value in assay [2] is 0%. For the same compound, the “development of sight-threatening retinopathy during the treatment period” value in assay [2] (diabetics in the treated group) is “none”. Also, in assay [2] (diabetics using eye drops on a regular basis), the “rate of progression of diabetic retinopathy compared with diabetics receiving timolol eye drops and with the total population of diabetics in Iceland” value is recorded as “lower rate of progression of diabetic retinopathy”. In addition, in assay [1], the “effect on optic nerve oxygen tension (ONPo2)” value is listed as “increased ONPo2”.

On to `CC(C)(C)NC[C@H](O)COc1nsnc1N1CCOCC1` [timolol], for which the “two year event rate (progression of retinopathy)” value in assay [2] is reported as 8.3%. Besides, the “overall event rate (retinopathy change) for the entire observation period” value in assay [2] (non-CAI (control) group, 12 diabetic patients, entire observation period) turned out to be 25%.
